Results taken from patent publication US9334246B2, “Substituted triazines for malaria treatment and chemoprophylaxis” (The United States of America, as represented by the …, priority 2013, dated 2016).

How the values were obtained:
Assay type in all cases: cell-based, Plasmodium falciparum
[1] = test system: P. falciparum W2; test: Malaria SYBR Green Fluorescence Assay, W2 strain; details: for W2: SYBR Green Assay
[2] = test system: P. falciparum C235; test: Malaria SYBR Green Fluorescence Assay, C235 strain; details: for C235: SYBR Green Assay
[3] = test system: P. falciparum D6; test: Malaria SYBR Green Fluorescence Assay, D6 strain; details: for D6: SYBR Green Assay

Molecule	W2 [1] [ng/mL]	C235 [2] [ng/mL]	D6 [3] [ng/mL]	also measured
CSc1ccc(-c2nc(NCCCN3CCCC3)nc(C(Cl)(Cl)Cl)n2)cc1 [Cmpd 44]	204	638	462	
CN1CCN(c2nc(-c3ccc(S(C)(=O)=O)cc3)nc(C(Cl)(Cl)Cl)n2)CC1 [Cmpd 54]	356	632	432	
CN1CCC(Nc2nc(-c3ccc(C(Cl)(Cl)Cl)cc3)nc(C(Cl)(Cl)Cl)n2)CC1 [Cmpd 61]	376	556	570	
COc1ccccc1Nc1nc(NCCC2CCCN2C)nc(C(Cl)(Cl)Cl)n1 (centres unmarked) [Cmpd 63]	794	540	603	
CN1CCCC1CCNc1nc(-c2ccc(S(C)(=O)=O)cc2)nc(C(Cl)(Cl)Cl)n1 (centres unmarked) [Cmpd 75]			635	
CCN1CCCC(Nc2nc(Cc3ccc(OC)cc3)nc(C(Cl)(Cl)Cl)n2)C1 (centres unmarked) [Cmpd 81]	601	992	633	
COc1cccc(Cc2nc(NCCN3CCCC3)nc(C(Cl)(Cl)Cl)n2)c1 [Cmpd 82]	805			
CCN1CCCC(Nc2nc(Cc3ccc(OC)cc3)nc(C(Cl)(Cl)Cl)n2)C1 (centres unmarked) [Cmpd 86]	600	991	623	
CCN1CCCC(Nc2nc(-c3ccc(SC)cc3)nc(C(Cl)(Cl)Cl)n2)C1 (centres unmarked) [Cmpd 88]	69	77	79	
CC(=O)Nc1cccc(Nc2nc(NCCC3CCCN3C)nc(C(Cl)(Cl)Cl)n2)c1 (centres unmarked) [Cmpd 92]	106	164	122	
CCN1CCCC(Nc2nc(Cc3ccccc3OC)nc(C(Cl)(Cl)Cl)n2)C1 (centres unmarked) [Cmpd 94]	173	456	396	
CS(=O)(=O)c1ccc(-c2nc(NCCNCCO)nc(C(Cl)(Cl)Cl)n2)cc1 [Cmpd 98]	366	554	448	
COc1ccc(-c2nc(N3CCCNCC3)nc(C(Cl)(Cl)Cl)n2)cc1 [Cmpd 101]	117	158	182	
COc1ccccc1-c1nc(NCCCN2CCCC2)nc(C(Cl)(Cl)Cl)n1 [Cmpd 105]	73	93	145	
Cc1ccc(-c2nc(NCc3ccncc3)nc(C(Cl)(Cl)Cl)n2)cc1 [Cmpd 134]	453		521	
COc1ccccc1-c1nc(NCc2ccncc2)nc(C(Cl)(Cl)Cl)n1 [Cmpd 135]	461		765	
COc1ccccc1-c1nc(NCc2cccnc2)nc(C(Cl)(Cl)Cl)n1 [Cmpd 154]	477			
COc1ccc(-c2nc(NCc3cccnc3)nc(C(Cl)(Cl)Cl)n2)cc1 [Cmpd 156]	560			
CC(C)(C)c1ccc(-c2nc(NCc3ccccn3)nc(C(Cl)(Cl)Cl)n2)cc1 [Cmpd 170]	313			
CS(=O)(=O)c1ccc(-c2nc(NCCc3ccccn3)nc(C(Cl)(Cl)Cl)n2)cc1 [Cmpd 180]	478		819	
COc1ccccc1-c1nc(NCCc2cccnc2)nc(C(Cl)(Cl)Cl)n1 [Cmpd 182]	256		659	
CN1CCCC1CCNc1nc(-c2ccc(-c3ccccc3)cc2)nc(C(Cl)(Cl)Cl)n1 (centres unmarked) [Cmpd 201]	845			
ClC(Cl)(Cl)c1nc(NCc2cccnc2)nc(-c2ccc(-c3ccccc3)cc2)n1 [Cmpd 249]	545	755		
ClC(Cl)(Cl)c1nc(NCc2ccccn2)nc(-c2ccc(-c3ccccc3)cc2)n1 [Cmpd 250]	721	858		
Cc1ccc(-c2ccccc2-c2nc(N3CCCNCC3)nc(C(Cl)(Cl)Cl)n2)cc1 [Cmpd 263]	960	763		
COc1ccc(-c2nc(NC3CCN(C)CC3)nc(C(Cl)(Cl)Cl)n2)cc1 [Cmpd 275]	618	699		

Molecule	W2 [1] [ng/mL]	C235 [2] [ng/mL]	D6 [3] [ng/mL]	also measured
COc1ccccc1Cc1nc(N2CCCN(C)CC2)nc(C(Cl)(Cl)Cl)n1 [Cmpd 289]	311		810	
CCN1CCC(CNc2nc(Nc3cccnc3OC)nc(C(Cl)(Cl)Cl)n2)CC1 [Cmpd 352]				W2 (SYBR Green Assay IC50) [1]: 0.6372 µg/mL; D6 (SYBR Green Assay IC50) [3]: 0.7908 µg/mL
CN1CCCC1CCNc1nc(-c2ccc(N3CCCC3)cc2)nc(C(Cl)(Cl)Cl)n1 (centres unmarked) [Cmpd 370]				D6 (SYBR Green Assay IC50) [3]: 0.846 µg/mL
COc1ccc(-c2nc(N3CCCN(C)CC3)nc(C(Cl)(Cl)Cl)n2)cc1OC [Cmpd 398]				W2 (SYBR Green Assay IC50) [1]: 0.638 µg/mL
COc1ccc(-c2nc(NC3CCN(C)CC3)nc(C(Cl)(Cl)Cl)n2)cc1OC [Cmpd 399]				W2 (SYBR Green Assay IC50) [1]: 0.705 µg/mL
Cc1ccc(-c2nc(N3CCN(CCO)CC3)nc(C(Cl)(Cl)Cl)n2)cc1 [Cmpd 416]				W2 (SYBR Green Assay IC50) [1]: 0.381 µg/mL
OCCN1CCCN(c2nc(-c3ccc(N4CCCC4)cc3)nc(C(Cl)(Cl)Cl)n2)CC1 [Cmpd 465]				W2 (SYBR Green Assay IC50) [1]: 0.222 µg/mL; C235 (SYBR Green Assay IC50) [2]: 0.498 µg/mL
Clc1ccc(-c2nc(NCCc3cnccn3)nc(C(Cl)(Cl)Cl)n2)cc1Cl [Cmpd 470]				W2 (SYBR Green Assay IC50) [1]: 0.07 µg/mL; C235 (SYBR Green Assay IC50) [2]: 0.258 µg/mL
Clc1cc(Cl)cc(-c2nc(NCCc3cnccn3)nc(C(Cl)(Cl)Cl)n2)c1 [Cmpd 471]				W2 (SYBR Green Assay IC50) [1]: 0.174 µg/mL
CSc1ccc(-c2nc(NCCc3cnccn3)nc(C(Cl)(Cl)Cl)n2)cc1 [Cmpd 543]				W2 (SYBR Green Assay IC50) [1]: 0.669 µg/mL
COc1ccc(-c2nc(NCCc3cnccn3)nc(C(Cl)(Cl)Cl)n2)c2ccccc12 [Cmpd 546]				W2 (SYBR Green Assay IC50) [1]: 0.361 µg/mL; C235 (SYBR Green Assay IC50) [2]: 0.701 µg/mL
CN(C)C1CCC(Nc2nc(-c3ccc(C(Cl)(Cl)Cl)cc3)nc(C(Cl)(Cl)Cl)n2)CC1 (centres unmarked) [Cmpd 597]				W2 (SYBR Green Assay IC50) [1]: 0.882 µg/mL
ClC(Cl)(Cl)c1ccc(C(Cl)(Cl)Cl)cc1.FC(F)(F)c1cccc(-c2nc(NCCCN3CCCC3)nc(C(Cl)(Cl)Cl)n2)c1 [Cmpd 602]				W2 (SYBR Green Assay IC50) [1]: 0.853 µg/mL
CS(=O)(=O)c1ccc(-c2nc(NCc3ccncc3)nc(C(Cl)(Cl)Cl)n2)cc1 [Compound 650, CS(═O)(═O)c1ccc(cc1)c2nc(NCc3ccncc3)nc(n2)C(Cl)(Cl)Cl]				W2 (SYBR Green Assay IC50) [1]: 0.803 µg/mL
COc1ncccc1Nc1nc(-c2ccc(S(C)(=O)=O)cc2)nc(C(Cl)(Cl)Cl)n1 [Compound 651, COc1ncccc1Nc2nc(nc(n2)C(Cl)(Cl)Cl)c3ccc(cc3)S(═O)(═O)C]				W2 (SYBR Green Assay IC50) [1]: 0.577 µg/mL; D6 (SYBR Green Assay IC50) [3]: 0.76 µg/mL
NC1(CNc2nc(-c3cccc(C(F)(F)F)c3)nc(C(Cl)(Cl)Cl)n2)CCCCC1 [Compound 663, NC1(CNC2═NC(═NC(═N2)C2═CC(═CC═C2)C(F)(F)F)C(Cl)(Cl)Cl)CCCCC1]	583		729	
NC1(CNc2nc(-c3ccccc3)nc(C(Cl)(Cl)Cl)n2)CC1 [Compound 677, NC1(CNC2═NC(═NC(═N2)C2═CC═CC═C2)C(Cl)(Cl)Cl)CC1]	527	910		
NC1(CNc2nc(-c3ccc(C(Cl)(Cl)Cl)cc3)nc(C(Cl)(Cl)Cl)n2)CC1 [Compound 679, NC1(CNC2═NC(═NC(═N2)C2═CC═C(C═C2)C(Cl)(Cl)Cl)C(Cl)(Cl)Cl)CC1]	201		606	
CC(C)(C)OC(=O)N1CC2CC1CN2c1nc(-c2ccc(Cl)c(Cl)c2)nc(C(Cl)(Cl)Cl)n1 (centres unmarked) [Compound 705, CC(C)(C)OC(═O)N1CC2CC1CN2c3nc(nc(n3)C(Cl)(Cl)Cl)c4ccc(Cl)c(Cl)c4]	851.8			
Cc1ccc(-c2nc(N3CC4CC3CN4C(=O)OC(C)(C)C)nc(C(Cl)(Cl)Cl)n2)cc1 (centres unmarked) [Compound 711, Cc1ccc(cc1)c2nc(nc(n2)C(Cl)(Cl)Cl)N3CC4CC3CN4C(═O)OC(C)(C)C]			812	
CC(C)(C)c1ccc(-c2nc(N3CCOCC3)nc(C(Cl)(Cl)Cl)n2)cc1 [Compound 734, CC(C)(C)c1ccc(cc1)c2nc(nc(n2)C(Cl)(Cl)C1)N3CCOCC3]	834			
CC(C)(C)c1ccc(cc1)c2nc(nc(n2)C(Cl)(Cl)Cl)N3CCCN(CCO)CC3 [Compound 738]	60.48	239.9		
CCN(CC)CCCC(C)Nc1nc(Nc2ccc(Cl)c(Cl)c2)nc(n1)C(Cl)(Cl)Cl [Compound 646]				W2 (SYBR Green Assay IC50) [1]: 0.7354 µg/mL; D6 (SYBR Green Assay IC50) [3]: 0.6727 µg/mL
CN(CCc1ccccn1)c2nc(nc(n2)C(Cl)(Cl)Cl)c3ccc(cc3)C(C)(C)C [Compound 736]	445.4			
CN(Cc1ccccc1c2cccnc2)c3nc(nc(n3)C(Cl)(Cl)Cl)c4ccc(cc4)C(Cl)(Cl)Cl [Compound 653]	272.1			
CS(═O)(═O)c1ccc(cc1)c2nc(nc(n2)C(Cl)(Cl)Cl)N3CCC(CC3)C(═O)N [Compound 690]	670			
